Data taken from patent US20200298233A1, “MICROFLUIDIC PAPER CHIP FOR DETECTING MICRO-ORGANISM, METHOD FOR PREPARING THE SAME AND METHOD FOR DETECTING MICRO-ORGANISM USING THE SAME” (BIOMAX CO., LTD., priority 2017, published 2020).
Where “and” joins values, the source holds several entries; their conditions need not be identical. Equal values may be shown once.

Assays:
[1] = tested on: 5 food risk microorganisms; experiment: Bacterial lysis efficacy by optical density, overall statements; assay type: cell-based; conditions: detergents at 1%, tables 3 and 4
[2] = tested on: Listeria monocytogenes; experiment: Bacterial lysis efficacy by measuring optical density (OD); assay type: cell-based
[3] = tested on: Esherichia coli O157; experiment: as above; assay type: cell-based, Escherichia coli O157
[4] = tested on: Staphylococcus aureus; experiment: as above; assay type: cell-based
[5] = tested on: Salmonella spp.; experiment: as above
[6] = tested on: Vibrio vulnificus; experiment: as above
[7] = tested on: Escherichia coli O157; conditions: chromogenic reagent terminal concentration 10 mM, 30 minutes at 37° C.
[8] = tested on: Staphylococcus aureus; experiment: Coloring reaction test of chromogenic reagents, 96 well plate; assay type: biochemical; conditions: chromogenic reagent terminal concentration 10 mM, 30 minutes at 37° C.
[9] = tested on: Vibrio vulnificus; experiment: as above; assay type: biochemical; conditions: chromogenic reagent terminal concentration 10 mM, 30 minutes at 37° C.
[10] = tested on: Escherichia coli; conditions: chromogenic reagent terminal concentration 10 mM, 30 minutes at 37° C.
[11] = tested on: Listeria monocytogenes; experiment: Coloring reaction test of chromogenic reagents, 96 well plate; assay type: biochemical; conditions: chromogenic reagent terminal concentration 10 mM, 30 minutes at 37° C.

CCCCCCCCCCCCCC[N+](C)(C)CCCS(=O)(=O)[O-] [SB3-14]
bacterial lysis efficacy [1]: best bacterial lysis efficacy
Optical density ([2]; Table 7, additives to 1% SB3-14, initial O.D = 1.2010): 0.6579 and 0.6484 and 0.6514
Optical density ([2]; Table 8, C7BZO concentrations added to 1% SB3-14, initial O.D = 1.1086): 0.7673 and 0.7609 and 0.7595
Optical density ([2]; detergent 0.1%, initial O.D = 0.8336): 0.9540 and 0.9653 and 0.9757
Optical density ([2]; detergent 0.5%, initial O.D = 0.8336): 0.8154 and 0.8244 and 0.8145
Optical density ([2]; detergent 1%, initial O.D = 0.8336): 0.5993 and 0.5050 and 0.5950
Optical density ([2]; detergent 2%, initial O.D = 0.8336): 0.9852 and 0.9975 and 0.9807
Optical density ([2]; detergent 3%, initial O.D = 0.8336): 0.7006 and 0.6813 and 0.6884
Optical density ([2]; detergent 5%, initial O.D = 0.8336): 0.7960 and 0.7828 and 0.7815
Optical density ([3]; Table 7, additives to 1% SB3-14, initial O.D = 1.0911): 0.1112 and 0.1137 and 0.1126
Optical density ([3]; Table 8, C7BZO concentrations added to 1% SB3-14, initial O.D = 1.0829): 0.1264 and 0.1254 and 0.1241
Optical density ([3]; detergent 0.1%, initial O.D = 0.8139): 0.4641 and 0.4483 and 0.4351
Optical density ([3]; detergent 0.5%, initial O.D = 0.8139): 0.2262 and 0.2254 and 0.2230
Optical density ([3]; detergent 1%, initial O.D = 0.8139): 0.0270 and 0.0238 and 0.0244
Optical density ([3]; detergent 2%, initial O.D = 0.8139): 0.4447 and 0.4452 and 0.4459
Optical density ([3]; detergent 3%, initial O.D = 0.8139): 0.6228 and 0.6275 and 0.6225
Optical density ([3]; detergent 5%, initial O.D = 0.8139): 0.6731 and 0.6746 and 0.6733
Optical density ([4]; Table 7, additives to 1% SB3-14, initial O.D = 1.2274): 0.8154 and 0.8152 and 0.8153
Optical density ([4]; Table 8, C7BZO concentrations added to 1% SB3-14, initial O.D = 1.1374): 0.8664 and 0.8654 and 0.8652
Optical density ([4]; detergent 0.1%, initial O.D = 1.1877): 0.9052 and 0.9069 and 0.9087
Optical density ([4]; detergent 0.5%, initial O.D = 1.1877): 1.1084 and 1.1070 and 1.1092
Optical density ([4]; detergent 1%, initial O.D = 1.1877): 0.5341 and 0.5322
Optical density ([4]; detergent 2%, initial O.D = 1.1877): 0.9473 and 0.9470 and 0.9461
Optical density ([4]; detergent 3%, initial O.D = 1.1877): 1.0432 and 1.0429 and 1.0502
Optical density ([4]; detergent 5%, initial O.D = 1.1877): 0.8999 and 0.8987 and 0.8865
Optical density ([5]; Table 7, additives to 1% SB3-14, initial O.D = 1.0894): 0.3597 and 0.3519 and 0.3447
Optical density ([5]; Table 8, C7BZO concentrations added to 1% SB3-14, initial O.D = 1.3421): 0.3640 and 0.3631 and 0.3627
Optical density ([5]; detergent 0.1%, initial O.D = 1.4448): 0.5393 and 0.5423 and 0.5520
Optical density ([5]; detergent 0.5%, initial O.D = 1.4448): 0.5807 and 0.5788 and 0.5796
Optical density ([5]; detergent 1%, initial O.D = 1.4448): 0.4105 and 0.4095
Optical density ([5]; detergent 2%, initial O.D = 1.4448): 0.5727 and 0.5754 and 0.5776
Optical density ([5]; detergent 3%, initial O.D = 1.4448): 0.5196 and 0.5221
Optical density ([5]; detergent 5%, initial O.D = 1.4448): 0.4419 and 0.4454 and 0.4443
Optical density ([6]; Table 7, additives to 1% SB3-14, initial O.D = 0.5670): 0.0800 and 0.0798 and 0.0787
Optical density ([6]; Table 8, C7BZO concentrations added to 1% SB3-14, initial O.D = 1.0272): 0.2733 and 0.2706 and 0.2737
Optical density ([6]; detergent 0.1%, initial O.D = 0.6143, listed as SB-14): 0.1924 and 0.1953 and 0.1984
Optical density ([6]; detergent 0.5%, initial O.D = 0.6143, listed as SB-14): 0.0679 and 0.0739 and 0.0695
Optical density ([6]; detergent 1%, initial O.D = 0.6143, listed as SB-14): 0.0601 and 0.0595 and 0.0588
Optical density ([6]; detergent 2%, initial O.D = 0.6143, listed as SB-14): 0.0445 and 0.0393 and 0.0447
Optical density ([6]; detergent 3%, initial O.D = 0.6143, listed as SB-14): 0.0453 and 0.0547 and 0.0528
Optical density ([6]; detergent 5%, initial O.D = 0.6143, listed as SB-14): 0.0310 and 0.0329 and 0.0320

5-Bromo-6-chloro-3-indoxyl-beta-D-galactopyranoside [Magenta-beta-galactopyranoside]
coloring reaction [7]: unique coloring reaction
coloring reaction [8]: unique coloring reaction
coloring reaction [9]: unique coloring reaction

O.O.O.O=C([O-])[C@H]1O[C@@H](Oc2c[nH]c3ccc(Br)c(Cl)c23)[C@H](O)[C@@H](O)[C@@H]1O.[Na+] [X-beta-glucuronide, 5-Bromo-4-chloro-3-indoxyl-beta-D-glucuronic acid Sodium salt trihydrate]
coloring reaction [10]: unique coloring reaction

Aldol ® 518 myo-inositol-1-phosphate [Aldol-myo-inositol-1-phosphate]
coloring reaction [11]: unique coloring reaction
